The results in this text go back to patent US20240209028A1, “CNP COMPOUNDS” (priority 2022, published 2024).

In the assay the target is T1, human natriuretic peptide receptor 2 (hNPR2) (Homo sapiens, UniProt P20594).
T1 construct: expressed in transfected cells; host or cells: HEK293 (ATCC CRL-1573), clone 35, co-transfected with pGloSensor-42F
T1 sequence (P20594 23-1047): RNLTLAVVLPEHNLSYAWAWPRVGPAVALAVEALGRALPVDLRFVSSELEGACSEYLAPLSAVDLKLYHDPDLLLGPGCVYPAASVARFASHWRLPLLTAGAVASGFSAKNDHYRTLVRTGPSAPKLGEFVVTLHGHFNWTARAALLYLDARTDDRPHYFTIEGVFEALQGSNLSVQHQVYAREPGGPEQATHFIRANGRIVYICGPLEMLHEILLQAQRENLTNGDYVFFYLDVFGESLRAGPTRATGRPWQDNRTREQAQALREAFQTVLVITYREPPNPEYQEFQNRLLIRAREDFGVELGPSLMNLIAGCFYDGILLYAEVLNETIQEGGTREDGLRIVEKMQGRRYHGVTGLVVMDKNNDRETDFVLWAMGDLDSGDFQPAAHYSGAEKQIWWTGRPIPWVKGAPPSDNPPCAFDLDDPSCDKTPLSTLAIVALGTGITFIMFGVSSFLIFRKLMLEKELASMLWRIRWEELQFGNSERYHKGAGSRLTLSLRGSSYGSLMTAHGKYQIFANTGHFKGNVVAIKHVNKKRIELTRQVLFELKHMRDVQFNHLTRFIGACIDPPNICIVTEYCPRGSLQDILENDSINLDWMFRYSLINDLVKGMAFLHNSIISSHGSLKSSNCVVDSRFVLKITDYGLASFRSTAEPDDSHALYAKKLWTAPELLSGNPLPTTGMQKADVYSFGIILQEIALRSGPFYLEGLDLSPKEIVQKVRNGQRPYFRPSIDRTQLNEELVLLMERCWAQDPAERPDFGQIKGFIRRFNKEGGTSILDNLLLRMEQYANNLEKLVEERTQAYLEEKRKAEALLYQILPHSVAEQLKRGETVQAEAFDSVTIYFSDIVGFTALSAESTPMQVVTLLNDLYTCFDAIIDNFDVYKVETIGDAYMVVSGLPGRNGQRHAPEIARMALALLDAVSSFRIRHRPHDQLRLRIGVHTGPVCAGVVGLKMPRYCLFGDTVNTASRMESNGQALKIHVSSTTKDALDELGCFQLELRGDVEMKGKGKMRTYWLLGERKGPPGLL
In words: In vitro hNPR2 activity assay (cGMP GloSensor reporter, HEK293). As to conditions: potency relative to CNP22 (0065). It is filed as cell-based. Put shortly:
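Potency is the EC50 from a four-parameter logistic fit, also expressed relative to the in-plate CNP22 control (×100), with at least two replicates. Compounds (ten concentrations, […], HSA-free diluent with 1% OVA, 0.01% Tween20) were incubated 30 min at 37 °C on HEK293 cells co-expressing hNPR2 and a GloSensor cGMP luciferase. Luminescence detected with Bright-Glo.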

Starred links: 1 amine or outer side, 2 acyl side, 3 side chain; linkers in the order of their positions; H or OH if unused. Positions of bridges follow the written chain, without caps; N, C: chain ends. Residues, ends and D or L forms follow the SMILES beside them. *: point of attachment. C18 diacid = O=C(O)CCCCCCCCCCCCCCCCC(=O)*; γGlu = O=C(O)[C@H](CCC(=O)[*:2])N[*:1]; AEEA = NCCOCCOCC(=O)O

Regarding `CC[C@H](C)[C@@H]1NC(=O)[C@H](CCCNC(=N)N)NC(=O)[C@H](CC(=O)O)NC(=O)[C@H](CC(C)C)NC(=O)[C@@H]2CCCN2C(=O)[C@H](CC(C)C)NC(=O)CNC(=O)[C@H](Cc2ccccc2)NC(=O)[C@@H](NC(=O)CNC(=O)[C@H](CCCCN)NC(=O)[C@H](CO)NC(=O)[C@@H](NC(=O)CNC(=O)[C@@H](NC(=O)[C@H](CCCCN)NC(=O)[C@H](CCC(N)=O)NC(=O)[C@H](C)NC(=O)CNC(=O)[C@H](CCCCN)NC(=O)[C@H](Cc2ccc(O)cc2)NC(=O)[C@H](CCCCN)NC(=O)[C@H](CCCNC(=N)N)NC(=O)[C@H](C)NC(=O)COCCOCCNC(=O)COCCOCCNC(=O)CC[C@H](NC(=O)CC[C@H](NC(=O)CC[C@H](NC(=O)CC[C@H](NC(=O)CCCCCCCCCCCCCCCCC(=O)O)C(=O)O)C(=O)O)C(=O)O)C(=O)O)[C@@H](C)O)C(C)C)CSSC[C@@H](C(=O)O)NC(=O)CNC(=O)[C@H](CC(C)C)NC(=O)CNC(=O)[C@H](CO)NC(=O)[C@H](CC(C)C)NC(=O)[C@H](CO)NC(=O)CNC1=O` [compound 1424] ({C18 diacid-γGlu-γGlu-γGlu-γGlu-AEEA-AEEA}-ARKYKGAQKTGVSKGCFGLPLDRIGSLSGLGC-OH; disulfide 16-32), the “hNPR2 0% HSA. [EC50% rel CNP]” value is 36.2%.

Take `CC[C@H](C)[C@@H]1NC(=O)[C@H](CCCNC(=N)N)NC(=O)[C@H](CC(=O)O)NC(=O)[C@H](CC(C)C)NC(=O)[C@@H]2CCCN2C(=O)[C@H](CC(C)C)NC(=O)CNC(=O)[C@H](Cc2ccccc2)NC(=O)[C@@H](NC(=O)CNC(=O)[C@H](CCCCN)NC(=O)[C@H](CO)NC(=O)[C@@H](NC(=O)CNC(=O)[C@@H](NC(=O)[C@H](CCCCN)NC(=O)[C@H](CCC(N)=O)NC(=O)[C@H](C)NC(=O)CNC(=O)[C@H](Cc2c[nH]cn2)NC(=O)[C@H](Cc2ccc(O)cc2)NC(=O)COCCOCCNC(=O)COCCOCCNC(=O)COCCOCCNC(=O)COCCOCCNC(=O)CC[C@H](NC(=O)CC[C@H](NC(=O)CCCCCCCCCCCCCCCCC(=O)O)C(=O)O)C(=O)O)[C@@H](C)O)C(C)C)CSSC[C@@H](C(=O)O)NC(=O)CNC(=O)[C@H](CC(C)C)NC(=O)CNC(=O)[C@H](CO)NC(=O)[C@H](CC(C)C)NC(=O)[C@H](CO)NC(=O)CNC1=O` [compound 1425] ({C18 diacid-γGlu-γGlu-AEEA-AEEA-AEEA-AEEA}-YHGAQKTGVSKGCFGLPLDRIGSLSGLGC-OH; disulfide 13-29): the “hNPR2 0% HSA. [EC50% rel CNP]” value was determined as 26.4%. Take `CC[C@H](C)[C@@H]1NC(=O)[C@H](CCCNC(=N)N)NC(=O)[C@H](CC(=O)O)NC(=O)[C@H](CC(C)C)NC(=O)[C@@H]2CCCN2C(=O)[C@H](CC(C)C)NC(=O)CNC(=O)[C@H](Cc2ccccc2)NC(=O)[C@@H](NC(=O)CNC(=O)[C@H](Cc2c[nH]cn2)NC(=O)[C@H](CO)NC(=O)CNC(=O)CNC(=O)[C@H](CCCCN)NC(=O)[C@H](CCCCN)NC(=O)[C@H](CCC(N)=O)NC(=O)[C@H](C)NC(=O)CNC(=O)[C@H](CCC(=O)O)NC(=O)[C@H](Cc2ccc(O)cc2)NC(=O)COCCOCCNC(=O)COCCOCCNC(=O)COCCOCCNC(=O)COCCOCCNC(=O)CC[C@H](NC(=O)CCCCCCCCCCCCCCCCC(=O)O)C(=O)O)CSSC[C@@H](C(=O)O)NC(=O)CNC(=O)[C@H](CC(C)C)NC(=O)CNC(=O)[C@H](CO)NC(=O)[C@H](CC(C)C)NC(=O)[C@H](CO)NC(=O)CNC1=O` [compound 1431] ({C18 diacid-γGlu-AEEA-AEEA-AEEA-AEEA}-YEGAQKKGGSHGCFGLPLDRIGSLSGLGC-OH; disulfide 13-29; C-terminus assumed): the “hNPR2 0% HSA. [EC50% rel CNP]” value was found to be 14.3%. As to `CC[C@H](C)[C@@H]1NC(=O)[C@H](CCCNC(=N)N)NC(=O)[C@H](CC(=O)O)NC(=O)[C@H](CC(C)C)NC(=O)[C@@H]2CCCN2C(=O)[C@H](CC(C)C)NC(=O)CNC(=O)[C@H](Cc2ccccc2)NC(=O)[C@@H](NC(=O)CNC(=O)[C@H](CCC(N)=O)NC(=O)[C@H](CO)NC(=O)[C@@H](NC(=O)CNC(=O)[C@H](CCCCN)NC(=O)[C@H](CCCCN)NC(=O)[C@H](CCC(N)=O)NC(=O)[C@H](C)NC(=O)CNC(=O)[C@H](CCCCN)NC(=O)[C@H](Cc2ccc(O)cc2)NC(=O)COCCOCCNC(=O)COCCOCCNC(=O)COCCOCCNC(=O)COCCOCCNC(=O)CC[C@H](NC(=O)CC[C@H](NC(=O)CCCCCCCCCCCCCCCCC(=O)O)C(=O)O)C(=O)O)C(C)C)CSSC[C@@H](C(=O)O)NC(=O)CNC(=O)[C@H](CC(C)C)NC(=O)CNC(=O)[C@H](CO)NC(=O)[C@H](CC(C)C)NC(=O)[C@H](CO)NC(=O)CNC1=O` [compound 1436] ({C18 diacid-γGlu-γGlu-AEEA-AEEA-AEEA-AEEA}-YKGAQKKGVSQGCFGLPLDRIGSLSGLGC-OH; disulfide 13-29; C-terminus assumed), the “hNPR2 0% HSA. [EC50% rel CNP]” value was 30.2%. For `CC[C@H](C)[C@@H]1NC(=O)[C@H](CCCNC(=N)N)NC(=O)[C@H](CC(=O)O)NC(=O)[C@H](CC(C)C)NC(=O)[C@@H]2CCCN2C(=O)[C@H](CC(C)C)NC(=O)CNC(=O)[C@H](Cc2ccccc2)NC(=O)[C@@H](NC(=O)CNC(=O)[C@H](CCC(N)=O)NC(=O)[C@H](CO)NC(=O)[C@@H](NC(=O)CNC(=O)[C@H](CCCCN)NC(=O)[C@H](CCCCN)NC(=O)[C@H](CCC(N)=O)NC(=O)[C@H](C)NC(=O)CNC(=O)[C@H](Cc2c[nH]cn2)NC(=O)[C@H](Cc2ccc(O)cc2)NC(=O)COCCOCCNC(=O)COCCOCCNC(=O)COCCOCCNC(=O)COCCOCCNC(=O)CC[C@H](NC(=O)CC[C@H](NC(=O)CCCCCCCCCCCCCCCCC(=O)O)C(=O)O)C(=O)O)C(C)C)CSSC[C@@H](C(=O)O)NC(=O)CNC(=O)[C@H](CC(C)C)NC(=O)CNC(=O)[C@H](CO)NC(=O)[C@H](CC(C)C)NC(=O)[C@H](CO)NC(=O)CNC1=O` [compound 1437] ({C18 diacid-γGlu-γGlu-AEEA-AEEA-AEEA-AEEA}-YHGAQKKGVSQGCFGLPLDRIGSLSGLGC-OH; disulfide 13-29) the value was 19.9%; for `CC[C@H](C)[C@@H]1NC(=O)[C@H](CCCNC(=N)N)NC(=O)[C@H](CC(=O)O)NC(=O)[C@H](CC(C)C)NC(=O)[C@@H]2CCCN2C(=O)[C@H](CC(C)C)NC(=O)CNC(=O)[C@H](Cc2ccccc2)NC(=O)[C@@H](NC(=O)CNC(=O)[C@H](CCCCN)NC(=O)[C@H](CO)NC(=O)[C@H](CC(C)C)NC(=O)CNC(=O)[C@H](CCCCN)NC(=O)[C@H](CCCCN)NC(=O)[C@H](CCC(N)=O)NC(=O)[C@H](C)NC(=O)CNC(=O)[C@H](CCC(=O)O)NC(=O)[C@H](Cc2ccc(O)cc2)NC(=O)[C@H](CCCCN)NC(=O)[C@H](CCCNC(=N)N)NC(=O)[C@H](C)NC(=O)[C@H](CCC(N)=O)NC(=O)[C@@H]2CCCN2C(=O)[C@H](Cc2c[nH]cn2)NC(=O)[C@H](CCC(=O)O)NC(=O)[C@H](CCC(N)=O)NC(=O)CC[C@H](NC(=O)CC[C@H](NC(=O)CC[C@H](NC(=O)CC[C@H](NC(=O)CCCCCCCCCCCCCCCCC(=O)O)C(=O)O)C(=O)O)C(=O)O)C(=O)O)CSSC[C@@H](C(=O)O)NC(=O)CNC(=O)[C@H](CC(C)C)NC(=O)CNC(=O)[C@H](CO)NC(=O)[C@H](CC(C)C)NC(=O)[C@H](CO)NC(=O)CNC1=O` [compound 1448] ({C18 diacid-γGlu-γGlu-γGlu-γGlu}-QEHPQARKYEGAQKKGLSKGCFGLPLDRIGSLSGLGC-OH; disulfide 21-37), 33.3%.
